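Compound exposure: 48 hours, 5 concentrations, 96-well plates. TGI is the concentration that stops growth completely.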
Key:
Experiment in all cases: NCI tumour cell line growth inhibition, 48 h
CCRF-CEM leukemia = system: CCRF-CEM leukemia
SN12C renal = system: SN12C renal
SW-620 colon = system: SW-620 colon
SK-MEL-2 melanoma = system: SK-MEL-2 melanoma
UACC-62 melanoma = system: UACC-62 melanoma
SK-MEL-5 melanoma = system: SK-MEL-5 melanoma
SK-OV-3 ovarian = system: SK-OV-3 ovarian
NCI-H522 lung = system: NCI-H522 lung
MCF7 breast = system: MCF7 breast
T-47D breast = system: T-47D breast
PC-3 prostate = system: PC-3 prostate
NCI/ADR-RES ovarian = system: NCI/ADR-RES ovarian
M14 melanoma = system: M14 melanoma
RXF 393 renal = system: RXF 393 renal
LOX IMVI melanoma = system: LOX IMVI melanoma
MALME-3M melanoma = system: MALME-3M melanoma
OVCAR-4 ovarian = system: OVCAR-4 ovarian
HOP-92 NSCLC = system: HOP-92 NSCLC
EKVX NSCLC = system: EKVX NSCLC
K-562 leukemia = system: K-562 leukemia

Row | Structure (SMILES) | TGI (CCRF-CEM leukemia) | TGI (SN12C renal) | TGI (SW-620 colon) | TGI (SK-MEL-2 melanoma) | TGI (UACC-62 melanoma) | TGI (SK-MEL-5 melanoma) | TGI (SK-OV-3 ovarian) | TGI (NCI-H522 lung) | TGI (MCF7 breast) | TGI (T-47D breast) | TGI (PC-3 prostate) | TGI (NCI/ADR-RES ovarian) | TGI (M14 melanoma) | TGI (RXF 393 renal) | TGI (LOX IMVI melanoma) | TGI (MALME-3M melanoma) | TGI (OVCAR-4 ovarian) | TGI (HOP-92 NSCLC) | TGI (EKVX NSCLC) | TGI (K-562 leukemia)
1 | COC(=O)C(Cc1c[nH]c2ccccc12)NP(=O)(O)OCC1OC(n2cc(F)c(=O)[nH]c2=O)CC1O (stereo not given) | > 59.1 µM | > 100 µM | > 100 µM | > 100 µM | > 100 µM | > 100 µM | > 100 µM | > 100 µM | > 100 µM | > 100 µM | > 100 µM | > 100 µM | > 100 µM | > 100 µM | > 100 µM | > 100 µM | > 100 µM | > 100 µM | > 100 µM | > 100 µM
2 | N#CC(C#N)=C1CCCCc2ccc([N+](=O)[O-])cc21 | > 100 µM | > 100 µM | > 100 µM | > 100 µM | > 100 µM | > 100 µM | > 100 µM | 39.9 µM | > 100 µM | > 100 µM | > 100 µM | > 100 µM | > 100 µM | > 100 µM | > 100 µM | > 100 µM | > 100 µM | > 100 µM | > 100 µM | > 100 µM
3 | CC(C)(C)C(=O)Nc1cccc(-c2ccc[nH]2)n1 | > 100 µM | > 100 µM | > 100 µM | > 100 µM | > 100 µM | > 100 µM | > 100 µM | > 100 µM | > 100 µM | > 100 µM | > 100 µM | > 100 µM | > 100 µM | > 100 µM | > 100 µM | > 100 µM | > 100 µM | > 100 µM | > 100 µM | > 100 µM
4 | C#C[C@]1(O)CC[C@H]2[C@@H]3CCC4=C/C(=N\OCCN5CCCC5)CC[C@]4(C)[C@H]3CC[C@@]21C | 51.6 µM | 43.7 µM | > 49.5 µM | 24.4 µM | 27.5 µM | 15.4 µM | 54.6 µM | 12 µM | 21.5 µM | 60.4 µM | 32.6 µM | 31.5 µM | 22.5 µM | > 39.9 µM | 33 µM | 23.4 µM | > 62.1 µM | > 100 µM | 38.1 µM | > 39.2 µM

Source: PubChem BioAssay (NCI)
